Consider 1 molecule from US20220218851A1, “COMPOUNDS AND METHODS FOR IMAGING IMMUNE ACTIVITY” (Board of Regents, The University of Texas System, priority 2019, published 2022).

Entries after “also recorded” stand apart in the source; their conditions may differ.

The test system of data set [1] is PMA-induced ear inflammation. Briefly: PMA ear inflammation model, PET/CT imaging. Particulars: for detection of PMA-inflamed ear versus vehicle ear by PET: IV injection, about 1 hr post tracer injection ([^18F]FDG from 45 min). It is filed as in vivo, mouse. As for the experimental part:
3 Months old Balb/c female mice or 20-26 week-old female C57B16 mice (Taconic) were topically treated with PMA (Sigma) (400 μM) in ethanol on the right ear or vehicle, ethanol, on the left ear. 24 hrs later, inflammation of the right ear was validated by visual inspection for redness and swelling. Mice were then injected IV (unless noted) with [^18F]FN or [^18F]FNS or [^18F]FNG derivatives as noted and PET/CT images were acquired at times indicated, typically 1 hr post injection. Mice, n=3 for [^18F]FN and [^18F]FNS, were euthanized at 1.5 hr post injection for blood metabolism analysis. In one experiment, adult (3 month old Balb/c) were imaged on an in vivo imaging system (IVIS Spectrum, PE; 5 min, binning 16, 25 cm FOV) 10 min post injection of Luminol (200 mg/kg) IP to confirm production of reactive oxygen species. For [^18F]FDG PET imaging experiments, mice were fasted for >4 hr prior to FDG injection. Mice were injected with [^18F]FDG IV under light anesthesia and then allowed to awake, move and drink water at libitum. Cages were kept on a cage warmer during uptake and washout periods. Mice were imaged starting at 45 min post-injection with a 10 min PET/CT scan (Albira, Bruker). In all cases, PET images were acquired for 10 min using a 15 cm FOV; CT images were acquired for fusion using a 7 cm FOV also centered on the object of interest. Image data were decay corrected to injection time (Albira, Bruker) and expressed as % ID/cc or SUV as indicated (PMOD, PMOD Technologies). Actual injected dose was calculated based on measuring the pre- and post-injection activity in the syringe with a dose calibrator on a per mouse basis (Capintec), and mice were individually weighed to calculate individual standardized uptake values. In the context of an acute inflammation model, [^18F]4FN was tested in a pilot experiment in Balb/c mice topically treated with PMA on the right ear or vehicle on the left ear. The treated ear turned red, visually confirming the inflammation site. Mice were injected IP with [^18F]4FN and PET/CT scans were taken at 11 min, 1 h, 2 h and 3 h post injection of tracer (FIG. 5). […] After 1 h, the inflamed ear was clearly visualized (>2% ID/cc). […] Production of reactive oxygen species in the inflamed ear was confirmed by BLI with luminol after PET imaging (FIG. 5) (Gross et al., 2009). This indicated the dependence of the signal on induced inflammation.

Another data set relates to Nox2. Briefly: PMA ear inflammation model in Nox2 KO mice, PET/CT imaging. The format is in vivo, mouse. Particulars: Nox2 KO mice (gp91phox-/-), IP, one-hour post administration. As for the experimental part: Balb/c mice were treated with either PMA or vehicle and imaged 24 hr post treatment by PET/CT scan at 1 hr post-injection (IP) of [^18F]4FN (FIG. 1A); photograph 3 hr post [^18F]4FN (FIG. 1i). BLI 10 min post luminol injection (FIG. 1C). Aged-matched, 15-week-old female wild-type […] or Nox2 KO mice (n=3 each) were treated with PMA or vehicle and imaged with [^18F]4FN one-hour post IP administration of radiotracer. PET/CT data were quantified using ROIs surrounding the right and left ears. Contrast-to-noise ratios were calculated for all mice and data were plotted as mean and SEM. […] Radioactive HPLC trace and chemical structure of [^18F]4FN (FIG. 1E).
3 Months old Balb/c female mice or 20-26 week-old female C57B16 mice (Taconic) were topically treated with PMA (Sigma) (400 μM) in ethanol on the right ear or vehicle, ethanol, on the left ear. 24 hrs later, inflammation of the right ear was validated by visual inspection for redness and swelling. Mice were then injected IV (unless noted) with [^18F]FN or [^18F]FNS or [^18F]FNG derivatives as noted and PET/CT images were acquired at times indicated, typically 1 hr post injection. Mice, n=3 for [^18F]FN and [^18F]FNS, were euthanized at 1.5 hr post injection for blood metabolism analysis. […]

Data set [2] is described as follows: In vivo mouse blood and urine metabolism by radio-HPLC. The method, then:
3 Months old Balb/c female mice or 20-26 week-old female C57B16 mice (Taconic) were topically treated with PMA (Sigma) (400 μM) in ethanol on the right ear or vehicle, ethanol, on the left ear. 24 hrs later, inflammation of the right ear was validated by visual inspection for redness and swelling. Mice were then injected IV (unless noted) with [^18F]FN or [^18F]FNS or [^18F]FNG derivatives as noted and PET/CT images were acquired at times indicated, typically 1 hr post injection. Mice, n=3 for [^18F]FN and [^18F]FNS, were euthanized at 1.5 hr post injection for blood metabolism analysis. In one experiment, adult (3 month old Balb/c) were imaged on an in vivo imaging system (IVIS Spectrum, PE; 5 min, binning 16, 25 cm FOV) 10 min post injection of Luminol (200 mg/kg) IP to confirm production of reactive oxygen species. For [^18F]FDG PET imaging experiments, mice were fasted for >4 hr prior to FDG injection. Mice were injected with [^18F]FDG IV under light anesthesia and then allowed to awake, move and drink water at libitum. Cages were kept on a cage warmer during uptake and washout periods. Mice were imaged starting at 45 min post-injection with a 10 min PET/CT scan (Albira, Bruker).
In vivo mouse blood metabolism was also performed. Blood was drawn from inflamed, non-inflamed and MPO knock-out mice at 5 min and 1.5 h post injection, processed and analyzed by analytical radio-HPLC. […] While 4-fluoronaphthol metabolism has not been studied, naphthol metabolism is well documented in the literature: the molecule is reported to be quickly transformed into glucuronic and sulfuric esters, and this pathway is conserved from flies to man (Narukawa et al., 2004 and Terriere et al., 1961). […] To test this hypothesis, [^18F]4FN was transformed enzymatically with glucuronosyltransferase and sulfonyl transferase into the corresponding glucuronide and sulfate derivatives (Scheme 3), respectively, and the products analyzed by radio-HPLC.

With `Oc1ccc([18F])c2ccccc12` [[^18F]4FN, 4-[^18F]fluoro-1-naphthol], in data set [1] (Balb/c mice, IP injection), the “clearance of the tracer” value is recorded as “renal dominant”, the “crossing of blood-brain barrier (radioactivity in the intracranial region)” value is on record as “may not cross an intact blood-brain barrier”, the hepatobiliary excretion entry is on record as “partial hepatobiliary excretion” and the “radioactivity in the liver” value is reported as “low”. In addition, in data set [1] (Balb/c mice, IP injection, 11 min post-injection), the “differentiation in uptake between inflamed right ear and vehicle treated left ear” value was “no differentiation in uptake”. The “uptake in inflamed ear” value in data set [1] (Balb/c mice, IP injection, 1 h post injection) was more than 2 % ID/cc. The “uptake-ratio between right-inflamed ear and left-control ear” value in data set [1] (IP injection, 11 min to 3 h post injection) is listed as “increased over time”. For the same molecule, in data set [1] (IP or IV delivery, n=5), the “Cohen's d effect size, inflamed versus non-inflamed sites” value is reported as “large Cohen's d effect sizes”; the “contrast ratios inflamed versus non-inflamed” value is listed as “strong contrast ratios”; the “difference in SUV between inflamed and vehicle-treated ears” value is reported as “statistically detectable differences in SUV; also recorded: statistically detectable differences in SUVaverage values”. For the same molecule, the “detection of PMA-inflamed ear versus vehicle ear by PET” value in data set [1] is on record as “clearly visible”. Further, the “detection of PMA-inflamed ear versus vehicle ear by PET” value in data set [1] (listed as [^18F]FN) is “readily detectable”. In the data set with Nox2, the “difference between inflamed and non-inflamed ear in Nox2 KO mice versus WT” value was “substantially smaller compared to WT inflamed mice; also recorded: decreased contrast between PMA-treated and untreated ears”. The blood metabolites result in data set [2] (5 min after injection) was “Metabolites are also present”. For the same molecule, the blood metabolites entry in data set [2] (inflamed mice, 1.5 h post injection) is given as “more polar metabolites were observed”. Also, the “blood radio-HPLC, parent compound” value in data set [2] (non-inflamed and MPO knock-out mice, 1.5 h post injection) is “the parent compound could still be seen”.
